Data as given in the supplement of paper PMC13380429.

Experiments:
[1] = test system: A549-ACE2 infected with SARS-CoV-2; assay: morphology score (similarity to uninfected cells); higher = more like uninfected cells; conditions: 24 h
Vero E6 [2] = assay: relative viability EC50 (midpoint between 100% and the lowest measured viability); higher = less toxic; conditions: 72 h
Calu-3 [3] = assay: as above; conditions: 72 h
HepG2 [4] = assay: as above; conditions: 72 h
U2OS [5] = assay: as above; conditions: 72 h
[6] = test system: A549-ACE2 infected with SARS-CoV-2; assay: cell count relative to DMSO; higher = less toxic; conditions: 24 h
A549-ACE2 [7] = assay: phospholipidosis EC50; higher = less potent phospholipidosis inducer
[8] = test system: A549-ACE2 infected with SARS-CoV-2; assay: SARS-CoV-2 infection rate relative to DMSO; higher = more infection; conditions: 24 h
Vero E6 [9] = assay: cell viability relative to DMSO; higher = less toxic; conditions: 72 h
Calu-3 [10] = assay: as above; conditions: 72 h
HepG2 [11] = assay: as above; conditions: 72 h
U2OS [12] = assay: as above; conditions: 72 h
Caco-2 [13] = assay: as above; conditions: 72 h
A549-ACE2 [14] = assay: drug-induced phospholipidosis relative to tamoxifen; higher = more phospholipidosis
Vero E6 [15] = assay: drug sensitivity score (DSS) for viability; higher = more toxic; extreme values may be limits of the assay; conditions: 72 h
Calu-3 [16] = assay: as above; conditions: 72 h
HepG2 [17] = assay: as above; conditions: 72 h
U2OS [18] = assay: as above; conditions: 72 h
Caco-2 [19] = assay: as above; conditions: 72 h
Caco-2 [20] = assay: relative viability EC50 (midpoint between 100% and the lowest measured viability); higher = less toxic; conditions: 72 h

CCOc1ccc(-c2nc(-c3cccc4c3CCC4NCCO)no2)cc1OCC (configuration not stated) [CYM-5442]
Conditions | SARS-CoV-2 infection rate [%] | cell count [%] | cell viability [%] | morphology score | phospholipidosis EC50 [µM]
A549-ACE2 [7], 24 h | – | – | – | – | 2.26
A549-ACE2 [7], 48 h | – | – | – | – | 3.87
A549-ACE2 [7], 72 h | – | – | – | – | 4.72
Caco-2 [13], 1 nM | – | – | 91 | – | –
Caco-2 [13], 10 nM | – | – | 96.9 | – | –
Caco-2 [13], 100 nM | – | – | 102 | – | –
Caco-2 [13], 1000 nM | – | – | 99.2 | – | –
Caco-2 [13], 10000 nM | – | – | 71.7 | – | –
Calu-3 [10], 1 nM | – | – | 94.6 | – | –
Calu-3 [10], 10 nM | – | – | 95.2 | – | –
Calu-3 [10], 100 nM | – | – | 91.2 | – | –
Calu-3 [10], 1000 nM | – | – | 104 | – | –
Calu-3 [10], 10000 nM | – | – | 92.8 | – | –
HepG2 [11], 1 nM | – | – | 97.5 | – | –
HepG2 [11], 10 nM | – | – | 101 | – | –
HepG2 [11], 100 nM | – | – | 90.5 | – | –
HepG2 [11], 1000 nM | – | – | 97.2 | – | –
HepG2 [11], 10000 nM | – | – | 78.8 | – | –
U2OS [12], 1 nM | – | – | 99 | – | –
U2OS [12], 10 nM | – | – | 95.7 | – | –
U2OS [12], 100 nM | – | – | 103 | – | –
U2OS [12], 1000 nM | – | – | 97 | – | –
U2OS [12], 10000 nM | – | – | 90.5 | – | –
Vero E6 [9], 1 nM | – | – | 90.7 | – | –
Vero E6 [9], 10 nM | – | – | 102 | – | –
Vero E6 [9], 100 nM | – | – | 84.5 | – | –
Vero E6 [9], 1000 nM | – | – | 94.7 | – | –
Vero E6 [9], 10000 nM | – | – | 99.1 | – | –
[1], 0.3 µM | – | – | – | 0.19 | –
[1], 3 µM | – | – | – | 0.72 | –
[1], 10 µM | – | – | – | 0.84 | –
[1], 30 µM | – | – | – | 0.63 | –
[6], 0.3 µM | – | 100 | – | – | –
[6], 3 µM | – | 118 | – | – | –
[6], 10 µM | – | 113 | – | – | –
[6], 30 µM | – | 104 | – | – | –
[8], 0.3 µM | 96 | – | – | – | –
[8], 3 µM | 55 | – | – | – | –
[8], 10 µM | 13 | – | – | – | –
[8], 30 µM | 19 | – | – | – | –

Conditions | drug sensitivity score | relative viability EC50 [µM]
Caco-2 [19] | 1.3 | –
Calu-3 [3] | – | > 10
Calu-3 [16] | 0 | –
HepG2 [4] | – | > 10
HepG2 [17] | 1.1 | –
U2OS [5] | – | > 10
U2OS [18] | 0 | –
Vero E6 [2] | – | > 10
Vero E6 [15] | 0 | –

drug-induced phospholipidosis [%], A549-ACE2 [14]
Conditions | 0.3 µM | 0.833333 µM | 3.33333 µM | 6.66667 µM | 10 µM | 30 µM
24 h | 3.28 | 18.4 | 62.3 | 81.5 | 100 | 87.8
48 h | 3.02 | 11.2 | 44.6 | 72.9 | 96 | 93.9
72 h | 0.284 | 11.6 | 36.7 | 67.4 | 106 | 99.3

CCN(CC)Cc1cc(Nc2ccnc3cc(Cl)ccc23)ccc1O [amodiaquine]
Conditions | SARS-CoV-2 infection rate, [8] [%] | cell count, [6] [%] | cell viability, Caco-2 [13] [%] | cell viability, Calu-3 [10] [%] | cell viability, HepG2 [11] [%] | cell viability, U2OS [12] [%] | cell viability, Vero E6 [9] [%] | morphology score, [1]
1 nM | – | – | 99.3 | 114 | 103 | 98.5 | 101 | –
10 nM | – | – | 92.1 | 110 | 79 | 101 | 99.3 | –
100 nM | – | – | 90.2 | 106 | 85.7 | 103 | 101 | –
0.3 µM | 87 | 109 | – | – | – | – | – | 0.38
1000 nM | – | – | 96.7 | 91.5 | 85.7 | 98.1 | 95.3 | –
3 µM | 24 | 121 | – | – | – | – | – | 0.87
10 µM | 12 | 133 | – | – | – | – | – | 0.76
10000 nM | – | – | 58.5 | 81.8 | 57.7 | 93.9 | 84.9 | –
30 µM | 14 | 121 | – | – | – | – | – | 0.1

Conditions | drug sensitivity score | relative viability EC50 [µM]
Caco-2 [19] | 2.6 | –
Calu-3 [3] | – | > 10
Calu-3 [16] | 1.3 | –
HepG2 [17] | 5.5 | –
U2OS [5] | – | > 10
U2OS [18] | 0 | –
Vero E6 [2] | – | > 10
Vero E6 [15] | 0.6 | –

Cc1c(-c2ccc(O)cc2)n(Cc2ccc(OCCN3CCCCCC3)cc2)c2ccc(O)cc12 [bazedoxifene]
Conditions | SARS-CoV-2 infection rate, [8] [%] | cell count, [6] [%] | cell viability, Caco-2 [13] [%] | cell viability, Calu-3 [10] [%] | cell viability, HepG2 [11] [%] | cell viability, U2OS [12] [%] | cell viability, Vero E6 [9] [%] | morphology score, [1]
1 nM | – | – | 104 | 96.3 | 95.2 | 104 | 102 | –
10 nM | – | – | 95.3 | 91.5 | 106 | 101 | 105 | –
0.1 µM | 97 | 99 | – | – | – | – | – | 0.02
100 nM | – | – | 95.4 | 105 | 95.3 | 104 | 98.3 | –
0.3 µM | 103 | 105 | – | – | – | – | – | 0.05
1 µM | 85 | 103 | – | – | – | – | – | 0.36
1000 nM | – | – | 91.5 | 97.6 | 98.1 | 99.2 | 100 | –
3 µM | 22 | 122 | – | – | – | – | – | 0.83
10000 nM | – | – | 60.4 | 11.6 | 12.3 | 53 | 18.1 | –

Conditions | drug sensitivity score | relative viability EC50 [µM]
Caco-2 [19] | 3.3 | –
Calu-3 [3] | – | 2.97
Calu-3 [16] | 5.2 | –
HepG2 [4] | – | 3.01
HepG2 [17] | 5.1 | –
U2OS [18] | 2.5 | –
Vero E6 [2] | – | 3.18
Vero E6 [15] | 4.5 | –

drug-induced phospholipidosis [%], A549-ACE2 [14]
Conditions | 0.3 µM | 0.833333 µM | 3.33333 µM | 6.66667 µM | 10 µM
24 h | 0.63 | 6.49 | 23.7 | 37.6 | 4.23
48 h | 0.36 | 3.68 | 24.9 | 44.4 | 36.7
72 h | 0.978 | 3.09 | 19.4 | 39.6 | 52.6

CCN(CC)CCOC(=O)C1(C2CCCCC2)CCCCC1 [dicycloverine]
Conditions | SARS-CoV-2 infection rate, [8] [%] | cell count, [6] [%] | cell viability, Caco-2 [13] [%] | cell viability, Calu-3 [10] [%] | cell viability, HepG2 [11] [%] | cell viability, U2OS [12] [%] | cell viability, Vero E6 [9] [%] | morphology score, [1]
1 nM | – | – | 99.3 | 93.2 | 95.7 | 97 | 96.1 | –
10 nM | – | – | 95.6 | 104 | 97.6 | 99.3 | 94 | –
100 nM | – | – | 97.2 | 91.8 | 103 | 99.3 | 98 | –
0.3 µM | 94 | 97 | – | – | – | – | – | 0.02
1000 nM | – | – | 98.1 | 91.8 | 98.7 | 108 | 92.6 | –
3 µM | 66 | 112 | – | – | – | – | – | 0.62
10 µM | 46 | 114 | – | – | – | – | – | 0.78
10000 nM | – | – | 102 | 102 | 105 | 104 | 108 | –
30 µM | 34 | 118 | – | – | – | – | – | 0.84

Conditions | drug sensitivity score | relative viability EC50 [µM]
Caco-2 [19] | 0 | –
Caco-2 [20] | – | > 10
Calu-3 [3] | – | > 10
Calu-3 [16] | 0 | –
HepG2 [4] | – | > 10
HepG2 [17] | 0 | –
U2OS [5] | – | > 10
U2OS [18] | 0 | –
Vero E6 [2] | – | > 10
Vero E6 [15] | 0 | –

drug-induced phospholipidosis [%], A549-ACE2 [14]
Conditions | 0.3 µM | 0.833333 µM | 3.33333 µM | 6.66667 µM | 10 µM | 30 µM
24 h | 4.66 | 1.82 | 4.06 | 5.19 | 6.77 | 68.6
48 h | 6.16 | 1.46 | 3.34 | 3.8 | 4.6 | 45.9
72 h | 5.16 | -0.588 | 0.239 | 2.22 | 2.64 | 30.3
